What was measured:
Phytophthora cinnamomi = experiment: Amended agar assay (potato dextrose agar), reduction in colony growth; format: cell-based; settings: for EC50: descending test concentrations, 5-fold dilutions typically down to 0.032 ppm, read-out: Phytophthora cinnamomi (EC50)
Procedure: (§1) Testing was carried out on potato dextrose agar (PDA) amended with each compound at test concentrations of 20, 4 and 0.8, 0.16 and 0.032 ppm. Amended agar at each test concentration was poured into three replicate 9 cm petri dishes. Each replicate dish was inoculated in the centre with a 5 mm agar plug taken from the leading edge of a culture aged between 2 and 7 days old; the age of the culture was dependant on the growth rate of the pathogen being tested. The test pathogens were Pythium ultimum and Phytophthora cinnamomi. Plates were incubated at 18° C. and the diameter of each colony measured before growth on the fastest growing plate reached the plate edge. This varied between 2 and 7 days depending on the growth rate of test pathogens. The % reduction in colony growth compared to the control was calculated for each test concentration and pathogen combination.
(§2) The results are shown in Table 1 in which * represents an average control of up to 50% at said dosage; ** represents an average control of 50% or greater but less than 80% at said dosage; and *** represents an average control of 80% or greater at said dosage.
(§3) A primary screen was also conducted for a number of other compounds of the invention. The screen was conducted at 20 ppm and the results are provided in Table 2, in which D represents no control detected at this concentration; C represents up to 50% control; B from 50 to 99% control; and A represents a control of greater than 99%.
(§4) Alternatively, or in addition, the same assay was conducted at descending test concentrations with 5-fold dilutions typically down to 0.032 ppm, and an EC50 (the concentration at which 50% control would be achieved) was determined. The results are provided in Table 1 in which G represents an EC50 above 20 ppm, F represents an EC50 of 2-20 ppm and E represents and EC50 less than 2 ppm.

Pythium ultimum = experiment: as above; format: cell-based; settings: Globisporangium ultimum; for EC50: descending test concentrations, 5-fold dilutions typically down to 0.032 ppm, read-out: Pythium ultimum (EC50); for inhibition of growth at 20 ppm: Pythium ultimum, primary screen at 20 ppm, read-out: % control at 20 ppm
Procedure: as §1, §2, §3, §4

Row | Compound | EC50 (Phytophthora cinnamomi) [µg/mL] | EC50 (Pythium ultimum) [µg/mL] | inhibition of growth at 20 ppm (Phytophthora cinnamomi; primary screen at 20 ppm, read-out: % control at 20 ppm) [%] | inhibition of growth at 20 ppm (Pythium ultimum) [%]
1 | Cn1nnnc1-n1c(OCc2cccc(NC(=O)CCC3CCCC3)n2)nc2ccccc21 [Example 26] | < 2 | < 2 |  | 
2 | Cn1nnnc1-n1c(OCc2cccc(NC(=O)c3ccccc3)n2)nc2ccccc21 [Example 27] | < 2 | < 2 |  | 
3 | CCC(=O)Nc1cccc(COc2nc3ccccc3n2-c2nnnn2C)n1 [Example 28] | < 2 | < 2 |  | 
4 | Cn1nnnc1-n1c(OCc2cccc(NC(=O)Cc3ccccc3)n2)nc2ccccc21 [Example 29] | < 2 | < 2 |  | 
5 | CCCC(=O)Nc1cccc(COc2nc3ccccc3n2-c2nnnn2C)n1 [Example 30] | < 2 | < 2 |  | 
6 | CCCCC(=O)Nc1cccc(COc2nc3ccccc3n2-c2nnnn2C)n1 [Example 31] | < 2 | < 2 |  | 
7 | Cn1nnnc1-n1c(OCc2cccc(NC(=O)C3CC3)n2)nc2ccccc21 [Example 32] | < 2 | < 2 |  | 
8 | COCC(=O)Nc1cccc(COc2nc3ccccc3n2-c2nnnn2C)n1 [Example 33] | 2 to 20 | 2 to 20 |  | 
9 | COc1ccc(C(=O)Nc2cccc(COc3nc4ccccc4n3-c3nnnn3C)n2)cc1 [Example 34] | < 2 | < 2 |  | 
10 | Cn1nnnc1-n1c(OCc2cccc(NC(=O)C3CCCCC3)n2)nc2ccccc21 [Example 35] | < 2 | < 2 |  | 
11 | CCC(CC)C(=O)Nc1cccc(COc2nc3ccccc3n2-c2nnnn2C)n1 [Example 36] | < 2 | < 2 |  | 
12 | Cn1nnnc1-n1c(OCc2cccc(NC(=O)c3ccccn3)n2)nc2ccccc21 [Example 37, N-(6-(((1-(1-methyl-1H-tetrazol-5-yl)-1H-benzo[d]imidazol-2-yl)oxy)methyl)pyridin-2-yl)picolinamide] | < 2 | < 2 |  | 
13 | Cn1nnnc1-n1c(OCc2cccc(NC(=O)Cc3ccccn3)n2)nc2ccccc21 [Example 38] | < 2 | < 2 |  | 
14 | CSCC(=O)Nc1cccc(COc2nc3ccccc3n2-c2nnnn2C)n1 [Example 39, N-(6-(((1-(1-methyl-1H-tetrazol-5-yl)-1H-benzo[d]imidazol-2-yl)oxy)methyl)pyridin-2-yl)-2-(methylthio)acetamide] | < 2 | < 2 |  | 
15 | Cn1nnnc1-n1c(OCc2cccc(NC(=O)CC3CC3)n2)nc2ccccc21 [Example 40] | < 2 | < 2 |  | 
16 | CSCCC(=O)Nc1cccc(COc2nc3ccccc3n2-c2nnnn2C)n1 [Example 41] | < 2 | < 2 |  | 
17 | COCCC(=O)Nc1cccc(COc2nc3ccccc3n2-c2nnnn2C)n1 [Example 42] | < 2 | < 2 |  | 
18 | Cn1nnnc1-n1c(OCc2cccc(NC(=O)c3ccc(C#N)cc3)n2)nc2ccccc21 [Example 43] | < 2 | < 2 |  | 
19 | Cn1nnnc1-n1c(OCc2cccc(NC(=O)CC(C)(C)C)n2)nc2ccccc21 [Example 44] | < 2 | < 2 |  | 
20 | Cn1nnnc1-n1c(OCc2cccc(NC(=O)CCC(C)(C)C)n2)nc2ccccc21 [Example 45] | < 2 | < 2 |  | 
21 | Cn1nnnc1-n1c(OCc2cccc(NC(=O)CC3CCCCC3)n2)nc2ccccc21 [Example 46] | < 2 | < 2 |  | 

Row | Compound | EC50 (Phytophthora cinnamomi) [µg/mL] | EC50 (Pythium ultimum) [µg/mL] | inhibition of growth at 20 ppm (Phytophthora cinnamomi; primary screen at 20 ppm, read-out: % control at 20 ppm) [%] | inhibition of growth at 20 ppm (Pythium ultimum) [%]
22 | Cn1nnnc1-n1c(OCc2cccc(NC(=O)CCC3CCCCC3)n2)nc2ccccc21 [Example 47] | < 2 | < 2 |  | 
23 | C#CCC(=O)Nc1cccc(COc2nc3ccccc3n2-c2nnnn2C)n1 [Example 48] | > 20 | > 20 |  | 
24 | CC(C)CCC(=O)Nc1cccc(COc2nc3ccccc3n2-c2nnnn2C)n1 [Example 49] | < 2 | < 2 |  | 
25 | C=CCC(=O)Nc1cccc(COc2nc3ccccc3n2-c2nnnn2C)n1 [Example 50] | < 2 | < 2 |  | 
26 | CCC(C)C(=O)Nc1cccc(COc2nc3ccccc3n2-c2nnnn2C)n1 (stereo not shown) [Example 51] | < 2 | < 2 |  | 
27 | Cn1nnnc1-n1c(OCc2cccc(NC(=O)C[S+](C)[O-])n2)nc2ccccc21 (stereo not shown) [Example 52, N-(6-(((1-(1-Methyl-1H-tetrazol-5-yl)-1H-benzo[d]imidazol-2-yl)oxy)methyl)pyridin-2-yl)-2-(methylsulfinyl)acetamide] | 2 to 20 | > 20 |  | 
28 | Cn1nnnc1-n1c(OCc2cccc(NC(=O)CS(C)(=O)=O)n2)nc2ccccc21 [Example 53, N-(6-(((1-(1-methyl-1H-tetrazol-5-yl)-1H-benzo[d]imidazol-2-yl)oxy)methyl)pyridin-2-yl)-2-(methylsulfonyl)acetamide] | < 2 | 2 to 20 |  | 
29 | Cn1ccnc1-n1c(OCc2cccc(NC(=O)C(F)(F)Oc3ccccc3)n2)nc2ccccc21 [Example 54] | < 2 | < 2 |  | 
30 | Cn1nnnc1-n1c(OCc2cccc(NC(=O)C(F)(F)Oc3ccccc3)n2)nc2c(F)cc(F)cc21 [Example 55] | < 2 | < 2 |  | 
31 | Cc1nccnc1-n1c(OCc2cccc(NC(=O)C(F)(F)Oc3ccccc3)n2)nc2ccccc21 [Example 56] | 2 to 20 | < 2 |  | 
32 | Cn1ccnc1-n1c(OCc2cccc(NC(=O)OC(C)(C)C)n2)nc2ccccc21 [Example 57] | < 2 | < 2 |  | 
33 | Cn1nnnc1-n1c(OCc2cccc(NC(=O)OC(C)(C)C)n2)nc2c(F)cc(F)cc21 [Example 58] | < 2 | < 2 |  | 
34 | Cc1nccnc1-n1c(OCc2cccc(NC(=O)OC(C)(C)C)n2)nc2ccccc21 [Example 59] | > 20 | > 20 |  | 
35 | Cn1nnnc1-n1c(OCc2cccc(NC(=O)C(F)(F)Oc3ccccc3)n2)nc2ccc(C#N)cc21 [Example 60] | < 2 | < 2 |  | 
36 | Cn1nnnc1-n1c(OCc2cccc(NC(=O)C(F)(F)Oc3ccccc3)n2)nc2cc(C#N)ccc21 [Example 61] | < 2 | < 2 |  | 
37 | O=C(Nc1cccc(COc2nc3ccccc3n2-c2ncccc2Br)n1)C(F)(F)Oc1ccccc1 [Example 62] |  |  | < 50 | < 50
38 | O=C(Nc1cccc(COc2nc3ccccc3n2-c2ncccc2Cl)n1)C(F)(F)Oc1ccccc1 [Example 63] | 2 to 20 | 2 to 20 |  | 
39 | O=C(Nc1cccc(COc2nc3ccccc3n2-c2ncncc2Cl)n1)C(F)(F)Oc1ccccc1 [Example 64] | < 2 |  |  | > 99
40 | Cc1cccnc1-n1c(OCc2cccc(NC(=O)C(F)(F)Oc3ccccc3)n2)nc2ncccc21 [Example 66] | > 20 |  |  | 50 to 99
41 | O=C(Nc1cccc(COc2[nH]c3ccccc3c2-c2ncncc2Cl)n1)C(F)(F)Oc1ccccc1 [Example 69, N-(6-(((3-(5-Chloropyrimidin-4-yl)-1H-indol-2-yl)oxy)methyl)pyridin-2-yl)-2,2-difluoro-2-phenoxyacetamide] | > 20 | > 20 |  | 
